Experiment: recombinant barcode read abundance after kanamycin selection (control-corrected) (log10(CPM+1)); higher = more efficient recombination; sequences stand for … in AGTGCAGAGAAAATCGGCCAGTTTTCTCTGCCTGCAGTCCGCATGCCGT…AGATTTATGCAGCGGACTGCCTTTCTCCCAAAGTGATAAACCGGACAGTATCATGGACCGGTTTTCCCGGTAATCCGTATTTGCAAGGTTGGTTTCACT; site = the 11-nt target
Summary of the method: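 IS621 bridge RNA target-binding loops were paired with targets in a pooled library tested in E. coli. After co-electroporation with a donor plasmid, cells were plated in two replicates on chloramphenicol/ampicillin LB agar (control) and on chloramphenicol/ampicillin/kanamycin carrying 0.1 mM IPTG. Barcodes at recombinant junctions were counted as counts per million, averaged and control-corrected to give recombination efficiency. Values are log10(CPM+1).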
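Also: IS621 recombinase and bridge RNA in Escherichia coli cells.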

Sequence	recombinant barcode read abundance (log10)
CTATGTGCTTGGGTTCTAACCTGTTGCTT (site CTATGTGCTAG)	1.1
CTATGTGCTTGGGTTCTAACCTGTTGCTT (site CTATGTGCTAT)	0.746
CTATTAACTTGGGTTCTAACCTGTTGCTA (site ACTCACCCTCC)	0.00656
CTATTAACTTGGGTTCTAACCTGTTGCTA (site CTATTAACTTA)	0.328
CTATTCCCTTGGGTTCTAACCTGTTGCTG (site CTATTCCCTCA)	1.99
CTATTCCCTTGGGTTCTAACCTGTTGCTG (site CTCTTCCCTAA)	0.185
CTATTCGCTTGGGTTCTAACCTGTTGCCT (site CTATTCACTAG)	0.295
CTATTCGCTTGGGTTCTAACCTGTTGCCT (site CTATTCCCTAG)	0.0147
CTATTCGCTTGGGTTCTAACCTGTTGCCT (site CTATTCGCTAG)	1.49
CTATTCGCTTGGGTTCTAACCTGTTGCCT (site CTATTCTCTAG)	0.218
CTATTGACTTGGGTTCTAACCTGTTGCCT (site CTATAGACTAG)	0.0514
CTATTGACTTGGGTTCTAACCTGTTGCCT (site CTATCGACTAG)	0.246
CTATTGACTTGGGTTCTAACCTGTTGCCT (site CTATGGACTAG)	0.11
CTATTGACTTGGGTTCTAACCTGTTGCCT (site CTATTGACTAG)	1.42
CTATTGTCTTGGGTTCTAACCTGTTGCGC (site CTATTGTCTAC)	0.06
CTATTGTCTTGGGTTCTAACCTGTTGCGC (site CTATTGTCTCC)	0.0404
CTATTGTCTTGGGTTCTAACCTGTTGCGC (site CTATTGTCTGC)	2.77
CTATTGTCTTGGGTTCTAACCTGTTGCGC (site CTATTGTCTTC)	0.909
CTATTTACTTGGGTTCTAACCTGTTGCCT (site CTAATTACTAG)	0.0674
CTATTTACTTGGGTTCTAACCTGTTGCCT (site CTACTTACTAG)	0.302
CTATTTACTTGGGTTCTAACCTGTTGCCT (site CTAGTTACTAG)	0.19
CTATTTACTTGGGTTCTAACCTGTTGCCT (site CTATTTACTAG)	0.411

Sequence	recombinant barcode read abundance (log10)
CTCAATTCTTGGGTTCTAACCTGTTGCAA (site CTCAATACTTC)	0.0332
CTCAATTCTTGGGTTCTAACCTGTTGCAA (site CTCAATTCTTT)	0.0558
CTCAATTCTTGGGTTCTAACCTGTTGCAT (site CTCAATTCTAT)	0.812
CTCAATTCTTGGGTTCTAACCTGTTGCAT (site CTCCATTCTAT)	0.0304
CTCAATTCTTGGGTTCTAACCTGTTGCAT (site CTCGATTCTAT)	0.27
CTCAATTCTTGGGTTCTAACCTGTTGCAT (site CTCTATTCTAT)	0.148
CTCATAACTTGGGTTCTAACCTGTTGCCG (site CTCATAACTCG)	0.328
CTCATAACTTGGGTTCTAACCTGTTGCCG (site CTCTAAACTCG)	0.2
CTCATATCTTGGGTTCTAACCTGTTGCTT (site CTCATATCTAA)	1.18
CTCATATCTTGGGTTCTAACCTGTTGCTT (site GAATGGACTTC)	0.0724
CTCCAACCTTGGGTTCTAACCTGTTGCCT (site CGCCCACCTAG)	0.144
CTCCAACCTTGGGTTCTAACCTGTTGCCT (site CTCCAACCTAG)	1.54
CTCCAACCTTGGGTTCTAACCTGTTGCGG (site CTCCAACCTCC)	2.14
CTCCAACCTTGGGTTCTAACCTGTTGCGG (site CTCCAGCCTCC)	0.461
CTCCATACTTGGGTTCTAACCTGTTGCCT (site CTCCATACTAG)	0.814
CTCCATACTTGGGTTCTAACCTGTTGCCT (site CTCCATCCTAG)	0.0983
CTCCATACTTGGGTTCTAACCTGTTGCCT (site CTCCATGCTAG)	0.23
CTCCATACTTGGGTTCTAACCTGTTGCCT (site CTCCATTCTAG)	0.0874
CTCCGAACTTGGGTTCTAACCTGTTGCAG (site CTCCGAACTCT)	1.12
CTCCGAACTTGGGTTCTAACCTGTTGCAG (site TCATATCCTAG)	0.174
CTCCGGACTTGGGTTCTAACCTGTTGCCT (site CTCCGGACTAG)	2.02
CTCCGGACTTGGGTTCTAACCTGTTGCCT (site CTCCGTACTAG)	0.276

Sequence	recombinant barcode read abundance (log10)
CTCCGTACTTGGGTTCTAACCTGTTGCCT (site CTCCGGACTAG)	0.0835
CTCCGTACTTGGGTTCTAACCTGTTGCCT (site CTCCGTACTAG)	0.858
CTCCTAGCTTGGGTTCTAACCTGTTGCTT (site CTCCGAGCTTA)	0.00954
CTCCTAGCTTGGGTTCTAACCTGTTGCTT (site CTCCTAGCTAA)	0.277
CTCCTCCCTTGGGTTCTAACCTGTTGCCT (site CTCCTCCCTAG)	1.29
CTCCTCCCTTGGGTTCTAACCTGTTGCCT (site CTCCTCTCTAG)	0.275
CTCCTCTCTTGGGTTCTAACCTGTTGCAT (site AAGTGAGCTTG)	0.0369
CTCCTCTCTTGGGTTCTAACCTGTTGCAT (site CTCCTCTCTAT)	2.03
CTCGAACCTTGGGTTCTAACCTGTTGCTG (site CTCGAACCTCA)	1.93
CTCGAACCTTGGGTTCTAACCTGTTGCTG (site CTCGAATCTTA)	0.077
CTCGGAACTTGGGTTCTAACCTGTTGCCT (site CTCGGAACTAG)	0.374
CTCGGAACTTGGGTTCTAACCTGTTGCCT (site CTCGGACCTAG)	0.257
CTCGGAACTTGGGTTCTAACCTGTTGCCT (site CTCGGAGCTAG)	0.325
CTCGGAACTTGGGTTCTAACCTGTTGCCT (site CTCGGATCTAG)	0.366
CTCGGACCTTGGGTTCTAACCTGTTGCCT (site CTCGGAACTAG)	0.209
CTCGGACCTTGGGTTCTAACCTGTTGCCT (site CTCGGACCTAG)	2.42
CTCGGACCTTGGGTTCTAACCTGTTGCCT (site CTCGGAGCTAG)	0.147
CTCGGACCTTGGGTTCTAACCTGTTGCCT (site CTCGGATCTAG)	0.263
CTCGGATCTTGGGTTCTAACCTGTTGCCT (site CTCGGAACTAG)	0.0461
CTCGGATCTTGGGTTCTAACCTGTTGCCT (site CTCGGACCTAG)	0.391
CTCGGATCTTGGGTTCTAACCTGTTGCCT (site CTCGGAGCTAG)	0.0938
CTCGGATCTTGGGTTCTAACCTGTTGCCT (site CTCGGATCTAG)	1.3

Sequence	recombinant barcode read abundance (log10)
CTCGGATCTTGGGTTCTAACCTGTTGCTA (site CTCGGATCTAA)	0.135
CTCGGATCTTGGGTTCTAACCTGTTGCTA (site CTCGGATCTCA)	0.15
CTCGGATCTTGGGTTCTAACCTGTTGCTA (site CTCGGATCTGA)	0.0177
CTCGGATCTTGGGTTCTAACCTGTTGCTA (site CTCGGATCTTA)	0.67
CTCGGATCTTGGGTTCTAACCTGTTGCTC (site CTCGGATCTAA)	0
CTCGGATCTTGGGTTCTAACCTGTTGCTC (site CTCGGATCTCA)	0.0519
CTCGGATCTTGGGTTCTAACCTGTTGCTC (site CTCGGATCTGA)	0.991
CTCGGATCTTGGGTTCTAACCTGTTGCTC (site CTCGGATCTTA)	0.138
CTCGGATCTTGGGTTCTAACCTGTTGCTG (site CTCGGATCTAA)	0.296
CTCGGATCTTGGGTTCTAACCTGTTGCTG (site CTCGGATCTCA)	1.08
CTCGGATCTTGGGTTCTAACCTGTTGCTG (site CTCGGATCTGA)	0
CTCGGATCTTGGGTTCTAACCTGTTGCTG (site CTCGGATCTTA)	0.133
CTCGTACCTTGGGTTCTAACCTGTTGCGG (site CTCGTACCTCC)	2.52
CTCGTACCTTGGGTTCTAACCTGTTGCGG (site CTCGTAGCTCC)	0.0696
CTCGTAGCTTGGGTTCTAACCTGTTGCCT (site AGTAGTTCTCT)	0.223
CTCGTAGCTTGGGTTCTAACCTGTTGCCT (site CTCGTAGCTAG)	0.651
CTCGTAGCTTGGGTTCTAACCTGTTGCGG (site CTCGTACCTCC)	0.0414
CTCGTAGCTTGGGTTCTAACCTGTTGCGG (site CTCGTAGCTCC)	1.23
CTCGTCACTTGGGTTCTAACCTGTTGCCT (site CTCGTAACTAG)	0.106
CTCGTCACTTGGGTTCTAACCTGTTGCCT (site CTCGTCACTAG)	1.91

— the supplement of paper PMC11208160
